Columns and labels:
[1] = test system: AK lesions on the face or scalp; test: Phase 2a study KX01-AK-002: AK lesion counts and clearance at day 57, 0.5 mg KX-01 on 25 cm^2; type: in vivo, human; settings: for Subjects with 100% clearance of AK lesions on day 57 / Subjects with at least 75% reduction of AK lesions on day 57 / AK lesion count, median: Cohort 1 (5-day), interim
Excerpt: An ongoing Phase 2a, open-label, multicenter, activity and safety study of KX-01 administered topically in subjects with AK on the face or scalp is described herein. […] Secondary objectives are to assess the activity of KX-01 administered topically during Days 1-57 based on reduction of AK lesion counts from baseline, assess the safety and tolerability and pharmacokinetics, and contrast the dose regimens (5-day treatment with 3-day treatment) in terms of activity and safety in subjects with AK on the face or scalp. This uncontrolled, nonrandomized trial is being conducted at 16 investigational sites in the United States. Enrollment is sequential for 2 cohorts of approximately 80 subjects each. Enrollment is closed for Cohort 1 and ongoing for Cohort 2. The two treatment cohorts are summarized below: • Cohort 1: 0.5 mg KX-01 administered topically to a contiguous treatment area of 25 cm^2 with 4-8 clinically typical AK lesions for 5 consecutive days • Cohort 2: 0.5 mg KX-01 administered topically to a contiguous treatment area of 25 cm^2 with 4-8 clinically typical AK lesions for 3 consecutive days
0.5 mg KX-01 is administered topically to an area of 25 cm^2 on the face or scalp by site staff on treatment days. […] AK lesion counts are recorded at baseline, days 8, 15, 29, and 57. […] Standardized photography of treatment area is performed at baseline, day 8 and day 57. Plasma samples are being collected at preplanned time points on days 1 and 5 for Cohort 1, and on days 1 and 3 for Cohort 2.
The Phase 2a trial described in Example 2a was completed with 84 eligible subjects enrolled in each of two cohorts: one cohort was subjected to the treatment for 5 consecutive days, and the other cohort was subjected to the treatment for 3 consecutive days. The results are described below and in FIG. 5.

[2] = Plasma pharmacokinetics after topical administration, LC-MS/MS; type: in vivo, human
Protocol: KX-01 was tested in adult subjects with actinic keratosis of the dorsal forearm (Example 1) and actinic keratosis on the face or scalp (Examples 2a and 2b). In Example 1, the plasma pharmacokinetics (PK) of KX-01 following topical administration was evaluated by collection of plasma on days 1 and 3 of the 3-day regimens and on days 1 and 5 of the 5-day regimens (Table 12). In Examples 2a and 2b, plasma samples were collected on days 1 and 5 of Cohort 1 (Table 13). Plasma samples at similar time points were collected on days 1 and 3 of Cohort 2. KX-01 was measured in human plasma using a validated LC-MS/MS assay with a lower limit of quantification (LLOQ) of 0.1 ng/mL.

[3] = test system: skin of forearm or forehead of AK patients; test: Comparison of skin reactions, photographs (FIGS. 3A-4B); type: in vivo, human
Excerpt: The comparison in FIGS. 3A, 3B, 4A, and 4B illustrates the lack of skin toxicity observed in the treatment of AK with topically administered KX-01 compared to the approved therapy for AK.

[4] = test system: subjects with AK on the dorsal forearm; settings: human, in vivo
Protocol: A Phase 1, single-center, safety, tolerability and pharmacokinetic study of KX-01 was performed on subjects with AK on the dorsal forearm. This was an open-label, uncontrolled, nonrandomized, sequential group clinical trial conducted at a single investigational center in the United States. The primary objectives of the study were to assess the safety, tolerability and pharmacokinetics of KX-01 in subjects with AK. The secondary objective was to evaluate the activity of KX-01 administered topically to the dorsal forearm in subjects with AK.
KX-01 was administered topically on treatment days. All subjects were monitored for safety and tolerability that included LSRs, AEs, vital signs, clinical laboratory tests, ECGs, and physical examinations at baseline and at pre-defined time points during treatment and follow-up on days 1, 2, 3, 4, 5, 8, 10, 17, 31 and 45.
LSRs (erythema, flaking/scaling, crusting, swelling, vesiculation/pustulation, erosion/ulceration) were assessed by the investigator or trained designee using a 4-point scale according to the protocol. The subject's assessment of the symptoms (stinging/burning, pruritus) associated with irritation of the treatment area was evaluated on a 4-point scale (0=none, 1=mild, 2=moderate, 3=severe). Subjects were queried for spontaneously reported AEs at each study visit before assessment of LSRs. LSRs and AEs were reported separately. All LSRs were to be followed to resolution or stabilization.

For `O=C(Cc1ccc(-c2ccc(OCCN3CCOCC3)cc2)cn1)NCc1ccccc1` [KX-01], the “Activity compared to Picato Phase 3 studies” value ([1]; 5-day regimen, cross-study tabulation) was “may be comparable”, the “Subjects with 100% clearance of AK lesions on day 57” value (from here on “Subjects with 100% clearance”) ([1]; face, 35 subjects) was 43% and the “Subjects with at least 75% reduction of AK lesions on day 57” value (“Subjects with at least 75% reduction” for short) ([1]; face, 35 subjects) was 60%. For the same molecule, the “Subjects with 100% clearance” value ([1]; overall, 67 subjects) was 36%, the “Subjects with at least 75% reduction” value ([1]; overall, 67 subjects) was 51% and the “Subjects with 100% clearance” value ([1]; scalp, 32 subjects) was 28%. The “Subjects with at least 75% reduction” value ([1]; scalp, 32 subjects) was 41%, the “AK lesion count, median” value ([1]; Day 1) was 6.0 and the “AK lesion count, median” value ([1]; Day 8) was 5.0. For the same molecule, the “AK lesion count, median” value ([1]; Day 15) was 4.0, the “AK lesion count, median” value ([1]; Day 29) was 2.0 and the “AK lesion count, median” value ([1]; Day 57) was 2.0. The “Activity of 5-day versus 3-day regimen” value ([1]; Examples 1, 2a and 2b) was “greater activity than the 3-day regimen”, the “Plasma concentration, back-up sample” value ([2]; Day 5, 0.5 hours post-dose, back-up of the 23 ng/mL sample) was “BLQ” and the “Plasma concentration, aberrant primary sample” value ([2]; Day 5, 0.5 hours post-dose, likely cross contamination) was 23 ng/mL. For the same molecule, the “Plasma concentration, back-up sample” value ([2]; Day 5, 1 hour post-dose, back-up of the 44 ng/mL sample) was 0.351 ng/mL, the “Plasma concentration, aberrant primary sample” value ([2]; Day 5, 1 hour post-dose, likely cross contamination) was 44 ng/mL and the “Plasma samples above the limit of quantification” value ([2]; KX01-AK-002, after 1 day of treatment, of 336 samples) was 15. For the same molecule, the Measurable plasma concentrations ([2]; KX01-AK-002, all except three aberrant samples) was “below 0.7 ng/mL”, the “Subjects with measurable plasma concentrations at 4 hours post-dose on Day 5” value ([2]; KX01-AK-002 Cohort 1) was 42 out of 84 and the “Subjects with quantifiable concentrations prior to the dose on Day 5” value ([2]; KX01-AK-002 Cohort 1) was 8 of 84. For the same molecule, the “Plasma concentration, back-up sample” value ([2]; back-up of the third aberrant sample) was 30 ng/mL, the “Plasma concentrations below the level of quantification (BLQ)” value ([2]; both studies) was 75% and the concentration at 5 days ([2]; human, plasma, up to 5 consecutive days of topical treatment, read-out: Systemic exposure (plasma concentration)) was less than 1 ng/mL. The “Apparent plasma concentration, aberrant sample” value ([2]; third aberrant sample, likely cross contamination) was “above 12,500 ng/mL”, the “Systemic exposure (plasma concentration)” value ([2]; up to 5 consecutive days of topical treatment) was less than 1 ng/mL and the “Skin reaction in the forearm” value ([3]; day 3 and day 5 of treatment) was “minimal or no adverse skin reactions”. The “Skin reaction in the forehead” value ([3]; day 8 and day 57, subject with 100% response) was “minimal or no adverse skin reactions”, the “Skin reactions compared with Picato” value ([3]; in vivo) was “fewer and less severe skin reactions” and the “Efficacy for clearing AK lesions compared with Picato” value ([3]; initial data of Examples 1, 2a, 2b) was “may be similar”. The “Serious adverse event (SAE) or death” value [4] was “no serious adverse event (SAE) or death”.

Reference: patent US10617693B2, “Methods of treating and/or preventing actinic keratosis” (Athenex, Inc., priority 2017, dated 2020)
